This note sets out measurements from paper PMC9097292, “Activity of Estrogen Receptor β Agonists in Therapy-Resistant Estrogen Receptor-Positive Breast Cancer” (Frontiers in Oncology, 2022).

The target in series [1] is T1, ERβ (estrogen receptor β) (Homo sapiens, UniProt Q92731).
T1 construct: gene ESR2; c-Flag ERβ (OHu25562D; pcDNA3.1+/C-(K) DYK)
Put plainly: ERE-luciferase reporter assay in HEK293T cells transfected with Flag-ERβ (agonist). The series is classed as cell-based. Background: Reporter assays use an easily measured gene product as a stand-in for the process of interest.

Series [2] concerns the target T2, ERα (estrogen receptor α) (Homo sapiens, UniProt P03372).
T2 construct: gene ESR1; c-Flag ERα (OHu26586D; pcDNA3.1+/C-(K) DYK)
T2 sequence (P03372 1-595): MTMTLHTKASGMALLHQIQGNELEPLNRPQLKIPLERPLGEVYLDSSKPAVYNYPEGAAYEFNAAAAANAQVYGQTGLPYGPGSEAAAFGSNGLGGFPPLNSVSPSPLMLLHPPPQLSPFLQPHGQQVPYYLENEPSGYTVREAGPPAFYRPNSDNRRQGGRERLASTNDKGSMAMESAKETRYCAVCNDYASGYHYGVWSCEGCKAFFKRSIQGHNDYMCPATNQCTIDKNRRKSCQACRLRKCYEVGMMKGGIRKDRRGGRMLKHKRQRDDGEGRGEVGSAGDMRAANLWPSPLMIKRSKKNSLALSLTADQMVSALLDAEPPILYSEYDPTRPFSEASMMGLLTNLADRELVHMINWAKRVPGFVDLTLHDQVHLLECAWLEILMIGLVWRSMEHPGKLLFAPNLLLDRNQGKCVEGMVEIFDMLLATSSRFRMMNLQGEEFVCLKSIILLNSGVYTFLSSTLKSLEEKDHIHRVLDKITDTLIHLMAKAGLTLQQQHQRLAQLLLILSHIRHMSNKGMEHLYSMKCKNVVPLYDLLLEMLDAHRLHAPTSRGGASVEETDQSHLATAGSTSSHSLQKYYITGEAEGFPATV
Description: ERE-luciferase reporter assay in HEK293T cells transfected with Flag-ERα (weaker activation than ERβ). Format: cell-based.

T1 sequence (Q92731 whole entry): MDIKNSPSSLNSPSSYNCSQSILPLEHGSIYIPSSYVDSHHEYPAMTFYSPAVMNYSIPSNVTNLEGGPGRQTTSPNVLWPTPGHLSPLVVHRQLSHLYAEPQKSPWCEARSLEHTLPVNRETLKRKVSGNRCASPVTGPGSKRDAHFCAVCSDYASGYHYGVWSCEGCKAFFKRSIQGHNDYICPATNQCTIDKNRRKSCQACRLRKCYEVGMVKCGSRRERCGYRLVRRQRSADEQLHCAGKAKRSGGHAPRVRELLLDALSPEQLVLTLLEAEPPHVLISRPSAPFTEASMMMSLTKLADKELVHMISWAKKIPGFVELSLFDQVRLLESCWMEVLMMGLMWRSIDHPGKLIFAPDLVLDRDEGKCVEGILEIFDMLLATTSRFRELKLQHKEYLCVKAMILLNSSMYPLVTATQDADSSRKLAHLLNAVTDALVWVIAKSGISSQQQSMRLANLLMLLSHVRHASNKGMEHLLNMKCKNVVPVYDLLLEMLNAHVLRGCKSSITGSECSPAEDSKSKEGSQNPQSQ

`Oc1ccc([C@@H]2Oc3ccc(O)cc3[C@@H]3CCC[C@@H]32)cc1` [LY500307]: the fold induction at 0.01 µM is 84 in series [1] (HEK-293T, read-out: ERE-luciferase reporter assay in HEK293T cells transfected with Flag-ERβ (agonis)) and 2.1 in series [2] (HEK-293T).

In the case of OSU-ERb-12, in series [1] (hek293t cells, 0.03 µM), the “ERE-luciferase reporter assay in HEK293T cells transfected with Flag-ERβ (agonis)” value is ~ 40 fold activation at 30 nmol/l. In addition, the “ERE-luciferase reporter assay in HEK293T cells transfected with Flag-ERα (weaker)” value in series [2] (hek293t cells, 0.03 µM) is on record as ~ 4 fold activation at 30 nmol/l.
